Reference: patent US20260297042A1, “BIARYLAMIDE DERIVATIVES AND THEIR USE AS PKMYT1 INHIBITORS” (CANCER RESEARCH TECHNOLOGY LIMITED, priority 2023, published 2026)

Key:
OVCAR 3 cells = assay: Cancer cell line proliferation assay, ATP-based cell viability (Cell Titre Glow), OVCAR 3 (CCNE1-amplified); conditions: KYSE30 (normal CCNE1) GI50 vs. OVCAR 3 (CCNE1-amplified) GI50
In short: (§1)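 Cells were treated with PKMYT1 inhibitors, then proliferation was assessed with CellTiter-Glo and luminescence read. GI50 values were fitted from the resulting data.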

WEE1 = molecular target: T1, WEE1 (Homo sapiens, UniProt P30291); assay: Selectivity versus WEE1 assay (ADP-Glo enzymatic assay); format: biochemical; conditions: banded; for IC50: ADP-Glo, 15 nM WEE1, 60 minutes at 26° C.; for PKMYT1 vs. WEE1 selectivity: fold difference in selectivity for PKMYT1 over WEE1, ">N" = at least in this band but could be higher
T1 construct: purchased Thermo Fisher PR7373A
T1 sequence (P30291 whole entry): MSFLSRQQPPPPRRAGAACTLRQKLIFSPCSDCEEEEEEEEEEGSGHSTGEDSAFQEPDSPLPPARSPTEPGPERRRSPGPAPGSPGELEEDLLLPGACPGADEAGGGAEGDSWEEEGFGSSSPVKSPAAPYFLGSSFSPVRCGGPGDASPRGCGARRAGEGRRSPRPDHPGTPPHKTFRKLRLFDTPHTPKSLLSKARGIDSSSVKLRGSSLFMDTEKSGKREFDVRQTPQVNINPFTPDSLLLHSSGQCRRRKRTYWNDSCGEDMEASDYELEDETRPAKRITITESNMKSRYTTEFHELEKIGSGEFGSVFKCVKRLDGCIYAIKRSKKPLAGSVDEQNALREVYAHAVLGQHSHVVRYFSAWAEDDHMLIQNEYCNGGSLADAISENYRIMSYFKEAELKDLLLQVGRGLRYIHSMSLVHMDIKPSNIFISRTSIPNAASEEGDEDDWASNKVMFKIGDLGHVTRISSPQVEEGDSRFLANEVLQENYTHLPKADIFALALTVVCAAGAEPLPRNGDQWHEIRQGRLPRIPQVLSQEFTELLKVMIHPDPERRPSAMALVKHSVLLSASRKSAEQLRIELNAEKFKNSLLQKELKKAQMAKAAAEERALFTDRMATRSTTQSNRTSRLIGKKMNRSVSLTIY
In short: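 Same format as the PKMYT1 assay: WEE1 at 15 nM final with 30 µM ATP, 60 min at 26° C, ADP-Glo luminescence detection, IC50 by dose-response fitting.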

Human PKMYT1 = molecular target: T2, Human PKMYT1 (Homo sapiens, UniProt Q99640); assay: PKMYT1 biochemical ADP-Glo enzymatic assay; conditions: ADP-Glo; 15 nM PKMYT1 kinase domain, 500 µM ATP, 60 minutes at 26° C.; banded
T2 construct: Human PKMYT1 75-362 was cloned as a TEV cleavable 6xHis fusion; 6xHis (TEV cleavable) (cleaved yes); made in house; host or cells: bacterial cells
T2 sequence (Q99640 75-362): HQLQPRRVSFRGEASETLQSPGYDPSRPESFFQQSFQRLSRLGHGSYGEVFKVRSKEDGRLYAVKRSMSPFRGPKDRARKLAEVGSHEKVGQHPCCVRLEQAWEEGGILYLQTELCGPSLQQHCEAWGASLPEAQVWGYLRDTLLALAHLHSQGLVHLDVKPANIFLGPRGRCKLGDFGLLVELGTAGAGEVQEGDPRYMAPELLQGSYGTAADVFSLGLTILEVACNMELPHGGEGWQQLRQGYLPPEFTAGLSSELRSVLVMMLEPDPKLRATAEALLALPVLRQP
In short: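 Measures inhibition of PKMYT1 autonomous ATP hydrolysis: bacterially expressed human enzyme (75-362, tag cleaved) at 15 nM with 500 µM ATP for 60 min at 26 °C, then ADP-Glo Max detection. IC50s accepted only when replicates agreed within 3-fold and curve r2 exceeded 0.9.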

[1] = molecular target: T3, Cellular PKMYT1 Biomarker CDK1 pT14 (Homo sapiens, UniProt Q99640); assay: Inhibition of cellular PKMYT1 biomarker CDK1 pT14 in OVCAR 3 cells (immunoblot); format: cell-based; conditions: 20 hours incubation
T3 construct: read-out CDK1 phospho-T14 immunoblot
T3 sequence (Q99640 1-499): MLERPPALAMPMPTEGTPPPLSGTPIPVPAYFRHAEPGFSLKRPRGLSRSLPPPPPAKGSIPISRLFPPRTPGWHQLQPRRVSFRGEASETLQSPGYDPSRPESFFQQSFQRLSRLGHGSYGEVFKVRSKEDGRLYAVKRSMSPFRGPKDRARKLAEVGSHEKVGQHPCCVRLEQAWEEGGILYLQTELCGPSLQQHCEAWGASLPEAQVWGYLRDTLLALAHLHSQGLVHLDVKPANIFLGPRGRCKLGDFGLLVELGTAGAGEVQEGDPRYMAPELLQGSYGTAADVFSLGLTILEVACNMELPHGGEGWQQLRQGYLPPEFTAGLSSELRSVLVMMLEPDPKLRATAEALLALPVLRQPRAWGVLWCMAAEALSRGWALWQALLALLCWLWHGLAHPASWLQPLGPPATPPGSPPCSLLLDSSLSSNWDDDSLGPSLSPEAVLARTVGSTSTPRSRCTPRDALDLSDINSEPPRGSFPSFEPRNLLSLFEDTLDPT
Experimental: To determine compound PKMYT1 IC50 in a cellular assay, OVCAR 3 cells were incubated at 37° C. in 5% CO2 atmosphere. The cells were maintained in RPMI medium supplemented with 20% foetal bovine serum, 1X non essential amino acids, 1 mM sodium pyruvate, Glutamax and insulin. Cells were seeded into 12-well plates at low density (50,000-200,000 cells per well), grown to confluence (~350-400,000 cells per well) and then treated with a range of concentrations of PKMYT1 inhibitors. The cells were incubated 20 hours and then harvested into 1X Laemmli Sample Buffer (BIORAD) without 2-mercaptoethanol, heated to 95° C. for 5 min, centrifuged and sonicated using a microprobe for 15 sec, 21W to shear the DNA.
The samples were analysed by immunoblot on a Jess Automated Western Blot System (BioTechne). The samples were separated using the 12-230 kDa Separation Module (BioTechne,) and blotted using an anti-CDK1 phospho T14 antibody (Abcam, #ab58509) and an anti-vinculin antibody (Abcam, #126002). Specific binding was detected by fluorescence using the Anti-Rabbit Detection Module (BioTechne, #DM-001), quantified using Compass for Simple Western software, and IC50 values were calculated by regression analysis in GraphPad Prism.

KYSE-30 cells = assay: Cancer cell line proliferation assay, ATP-based cell viability (Cell Titre Glow), KYSE-30 (normal CCNE1); conditions: Homo sapiens, KYSE-30 cells (normal CCNE1), concentration that achieves 50% cell growth proliferation inhibition, read-out: KYSE30 Gl50
In short: as §1

| SMILES | IC50 (WEE1) [µM] | PKMYT1 vs. WEE1 selectivity (WEE1) | IC50 (Human PKMYT1) [µM] | IC50 [1] [µM] | Selectivity ratio KYSE30 Gl50 vs. OVCAR3 Gl50 (OVCAR 3 cells) | GI50 (KYSE-30 cells) [µM] |
| --- | --- | --- | --- | --- | --- | --- |
| Cc1ccc(O)c(C)c1NC(=O)c1cnc(Nc2ccc(N3CCC(F)(F)CC3)cn2)s1 [BAA-308, 2-((5-(4,4-difluoropiperidin-1-yl)pyridin-2-yl)amino)-N-(3-hydroxy-2,6-dimethylphenyl)thiazole-5-carboxamide] | > 11 | X (100-<1000 fold) | 0.05 to 1 | < 0.1 | X (3-20 fold) | 0.5 to 5 |
| Cc1ccc(NC(=O)c2ccc(F)cc2)nc1Nc1ncc(C(=O)Nc2c(C)ccc(O)c2C)s1 [BAA-309, 2-((6-(4-fluorobenzamido)-3-methylpyridin-2-yl)amino)-N-(3-hydroxy-2,6-dimethylphenyl)thiazole-5-carboxamide] | > 11 | Y (1000-5000 fold) | 0.05 to 1 | < 0.1 | Y (>20 fold) | 0.5 to 5 |
| Cc1ccc(O)c(C)c1NC(=O)c1cnc(Nc2cccc(N3CCC(F)(F)CC3)n2)s1 [BAA-314, 2-((6-(4,4-difluoropiperidin-1-yl)pyridin-2-yl)amino)-N-(3-hydroxy-2,6-dimethylphenyl)thiazole-5-carboxamide] | 1 to 11 | W (10-<100 fold) | 0.05 to 1 | < 0.1 | Y (>20 fold) | 0.5 to 5 |
| COc1cc(-c2cccc(Nc3ncc(C(=O)Nc4c(C)ccc(O)c4C)s3)n2)cc(OC)c1OC [BAA-317, N-(3-hydroxy-2,6-dimethylphenyl)-2-((6-(3,4,5-trimethoxyphenyl)pyridin-2-yl)amino)thiazole-5-carboxamide] | > 11 | Y (1000-5000 fold) | < 0.05 | < 0.1 | Y (>20 fold) | 0.5 to 5 |
| Cc1ccc(O)c(C)c1NC(=O)c1cnc(Nc2cccc(NC(=O)c3ccc(F)cc3)n2)s1 [BAA-320, 2-((6-(4-fluorobenzamido)pyridin-2-yl)amino)-N-(3-hydroxy-2,6-dimethylphenyl)thiazole-5-carboxamide] | > 11 | Y (1000-5000 fold) | < 0.05 | < 0.1 | Y (>20 fold) | 0.5 to 5 |
| Cc1ccc(NC(=O)C(C)(C)C)nc1Nc1ncc(C(=O)Nc2c(C)ccc(O)c2C)s1 [BAA-323, N-(3-hydroxy-2,6-dimethylphenyl)-2-((3-methyl-6-pivalamidopyridin-2-yl)amino)thiazole-5-carboxamide] | > 11 | Y (1000-5000 fold) | < 0.05 | < 0.1 | Y (>20 fold) | 0.5 to 5 |
| Cc1ccc(O)c(C)c1NC(=O)c1cnc(Nc2cccc(N(C)C(=O)c3c(F)cc(F)cc3F)n2)s1 [BAA-325, N-(3-hydroxy-2,6-dimethylphenyl)-2-((6-(2,4,6-trifluoro-N-methylbenzamido)pyridin-2-yl)amino)thiazole-5-carboxamide] | > 11 | Y (1000-5000 fold) | 0.05 to 1 | < 0.1 | X (3-20 fold) | > 5 |
| Cc1ccc(O)c(C)c1NC(=O)c1cnc(Nc2cccc(N3CCC(NC(=O)OC(C)(C)C)CC3)n2)s1 [BAA-327, tert-butyl(1-(6-((5-((3-hydroxy-2,6-dimethylphenyl)carbamoyl)thiazol-2-yl)amino)pyridin-2-yl)piperidin-4-yl)carbamate] | > 11 | X (100-<1000 fold) | 0.05 to 1 | 0.1 to 1 | Y (>20 fold) | 0.5 to 5 |

Now from value to compound, other results behind:

| IC50 (WEE1) [µM] | PKMYT1 vs. WEE1 selectivity (WEE1) | IC50 (Human PKMYT1) [µM] | IC50 [1] [µM] | SMILES | Selectivity ratio KYSE30 Gl50 vs. OVCAR3 Gl50 (OVCAR 3 cells) | GI50 (KYSE-30 cells) [µM] |
| --- | --- | --- | --- | --- | --- | --- |
| > 11 | Y (1000-5000 fold) | < 0.05 | < 0.1 | Cc1ccc(O)c(C)c1NC(=O)c1cnc(Nc2nccc3ccc(F)cc23)s1 [BAA-303, 2-((7-fluoroisoquinolin-1-yl)amino)-N-(3-hydroxy-2,6-dimethylphenyl)thiazole-5-carboxamide] | X (3-20 fold) | 0.5 to 5 |
| > 11 | X (100-<1000 fold) | 0.05 to 1 | < 0.1 | Cc1cc(Nc2ncc(C(=O)Nc3c(C)ccc(O)c3C)s2)nc(N2CCC(F)(F)CC2)n1 [BAA-313, 2-((2-(4,4-difluoropiperidin-1-yl)-6-methylpyrimidin-4-yl)amino)-N-(3-hydroxy-2,6-dimethylphenyl)thiazole-5-carboxamide] | Y (>20 fold) | 0.5 to 5 |
| > 11 | Y (1000-5000 fold) | 0.05 to 1 | 0.1 to 1 | Cc1ccc(O)c(C)c1NC(=O)c1cnc(Nc2cccc(-c3ccc(C(F)(F)F)cc3)n2)s1 [BAA-316, N-(3-hydroxy-2,6-dimethylphenyl)-2-((6-(4-(trifluoromethyl)phenyl)pyridin-2-yl)amino)thiazole-5-carboxamide] | Y (>20 fold) | 0.5 to 5 |
| > 11 | Y (1000-5000 fold) | < 0.05 | < 0.1 | Cc1cc(Nc2ncc(C(=O)Nc3c(C)ccc(O)c3C)s2)nc(OCC(F)(F)F)n1 [BAA-319, N-(3-hydroxy-2,6-dimethylphenyl)-2-((6-methyl-2-(2,2,2-trifluoroethoxy)pyrimidin-4-yl)amino)thiazole-5-carboxamide] | Y (>20 fold) | 0.5 to 5 |
| > 11 | X (100-<1000 fold) | 0.05 to 1 | 0.1 to 1 | Cc1ccc(O)c(C)c1NC(=O)c1cnc(Nc2cc(C(F)(F)F)cc(Cl)n2)s1 [BAA-321, 2-((6-chloro-4-(trifluoromethyl)pyridin-2-yl)amino)-N-(3-hydroxy-2,6-dimethylphenyl)thiazole-5-carboxamide] | Y (>20 fold) | > 5 |
| > 11 | X (100-<1000 fold) | 0.05 to 1 | < 0.1 | Cc1ccc(O)c(C)c1NC(=O)c1cnc(Nc2cc(C(F)(F)F)nc(N3CCOCC3)n2)s1 [BAA-326, N-(3-hydroxy-2,6-dimethylphenyl)-2-((2-morpholino-6-(trifluoromethyl)pyrimidin-4-yl)amino)thiazole-5-carboxamide] | Y (>20 fold) | 0.5 to 5 |
